Active and inactive are the calls of the source. The calls are words filed in the database; no cut-off is given here.
Legend:
[1] = Cytotoxicity against C57BL/6 mouse BMDM cells incubated for 48 hrs by MTT assay; type: toxicity, cell-based; conditions: BMDM cells (bone marrow-derived macrophages)
[2] = biological target: Kelch-like ECH-associated protein 1 (Homo sapiens, UniProt Q14145); assay: Binding affinity to recombinant human Keap1 by SPR analysis
[3] = system: BMDM; assay: Anti-osteoclastogenesis activity in C57BL/6 mouse BMDM cells assessed as inhibition of RANKL-induced osteoclastogenesis at 10 uM incubated for 7 days in the presence of M-CSF by TRAP-staining based microscopic analysis relative to control; type: functional; conditions: for inhibition at 10 µM: C57BL/6, BMDM, 168 h, time 7 day

Sequence of Kelch-like ECH-associated protein 1 (Q14145 whole entry): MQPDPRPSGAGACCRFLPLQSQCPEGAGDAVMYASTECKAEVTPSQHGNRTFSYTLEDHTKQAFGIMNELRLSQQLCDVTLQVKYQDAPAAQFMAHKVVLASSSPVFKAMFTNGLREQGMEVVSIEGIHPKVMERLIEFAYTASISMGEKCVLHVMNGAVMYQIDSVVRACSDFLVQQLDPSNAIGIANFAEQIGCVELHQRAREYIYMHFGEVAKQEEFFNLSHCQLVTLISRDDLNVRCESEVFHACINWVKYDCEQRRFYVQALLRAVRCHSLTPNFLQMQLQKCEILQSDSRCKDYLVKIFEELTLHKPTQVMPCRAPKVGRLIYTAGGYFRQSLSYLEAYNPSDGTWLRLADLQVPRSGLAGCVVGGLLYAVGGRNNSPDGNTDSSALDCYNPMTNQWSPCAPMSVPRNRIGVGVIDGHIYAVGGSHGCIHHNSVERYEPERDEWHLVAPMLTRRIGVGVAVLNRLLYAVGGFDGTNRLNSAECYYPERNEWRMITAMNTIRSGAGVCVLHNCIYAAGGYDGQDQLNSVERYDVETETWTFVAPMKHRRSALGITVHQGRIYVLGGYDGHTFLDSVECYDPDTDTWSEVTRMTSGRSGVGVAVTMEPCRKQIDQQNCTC

| Structure (SMILES) | CC50 at 48 h [1] [µM] | Activity [2] | inhibition at 10 µM [3] [%] | inhibition ([3]; time 7.0 day) |
| --- | --- | --- | --- | --- |
| C=C1[C@H]2O[C@]3([C@@H](C)C(=O)O[C@H]3[C@H]1Cl)[C@@H](OC(C)=O)[C@H]1[C@@]3(CO3)[C@H](OC(C)=O)C[C@H](OC(C)=O)[C@]1(C)[C@@H](OC(C)=O)[C@@H]2OC(C)=O | > 50 | Active | 37.1 | – |
| C=C1CC[C@H](OC(C)=O)[C@]2(C)[C@@H](OC(C)=O)C[C@@H](OC(C)=O)/C(COC(=O)CC(C)C)=C\[C@@H]3OC(=O)[C@H](C)[C@@]3(O)[C@@H](OC(C)=O)[C@@H]12 | > 50 | – | 91.3 | – |
| CC(=O)O[C@H]1CC/C(C)=C\[C@@H]2OC(=O)[C@H](C)[C@@]2(O)[C@@H](OC(C)=O)[C@H]2[C@]3(CC[C@H](OC(C)=O)[C@]12C)CO3 [JUNCEELLOLIDE K] | > 50 | – | 86.6 | – |
| CC(=O)O[C@H]1CC[C@]2(CO2)[C@@H]2[C@H](OC(C)=O)[C@@]3(O)[C@H](/C=C(/C)[C@H](OC(C)=O)C[C@H](OC(C)=O)[C@@]12C)OC(=O)[C@@H]3C [11ALPHA,20ALPHA-EPOXYJUNCEELLOLIDE] | > 50 | – | 58.1 | – |
| C=C1[C@H]2O[C@]3([C@@H](C)C(=O)O[C@H]3[C@H]1Cl)[C@@H](OC(C)=O)[C@H]1[C@@]3(CO3)[C@H](OC(=O)CC(C)C)C[C@H](OC(C)=O)[C@]1(C)[C@@H](OC(C)=O)[C@@H]2OC(C)=O | > 50 | – | 51.7 | – |
| CC(=O)O[C@H]1[C@@H](OC(=O)CC(C)C)[C@](O)(CO)[C@@H]2[C@H](OC(C)=O)[C@@]3(O)[C@H](/C=C(CO)\C=C/[C@H](OC(=O)COC(=O)CC(C)C)[C@@]2(C)[C@H]1OC(C)=O)OC(=O)[C@@H]3C | > 50 | inactive | 30.8 | – |
| C=C1[C@H]2O[C@]3([C@H](C)C(=O)O[C@H]3[C@H]1Cl)[C@@H](OC(C)=O)[C@H]1[C@]3(CC[C@H](OC(C)=O)[C@]1(C)[C@@H](OC(C)=O)[C@@H]2OC(C)=O)CO3 | > 50 | – | 12.2 | – |
| C=C1CC[C@H](OC(C)=O)[C@]2(C)[C@@H](OC(C)=O)C[C@@H](OC(C)=O)/C(CO)=C\[C@@H]3OC(=O)[C@H](C)[C@@]3(O)[C@@H](OC(C)=O)[C@@H]12 | > 50 | – | 40.7 | – |
| C=C1[C@H](OC(C)=O)C[C@H](OC(C)=O)[C@@]2(C)[C@@H](OC(C)=O)C[C@@H](OC(C)=O)[C@]3(CO3)[C@@H]2[C@H](OC(C)=O)[C@]2(O)[C@@H](C)C(=O)O[C@H]2[C@H]1Cl | > 50 | – | 80.8 | – |
| CC(=O)O[C@H]1/C=C\C(CCl)=C/[C@@H]2OC(=O)[C@H](C)[C@@]2(O)[C@@H](OC(C)=O)[C@H]2[C@@]3(CO3)[C@H](OC(=O)CC(C)C)C[C@H](OC(C)=O)[C@]12C | > 50 | – | 29.1 | – |
| C=C1/C=C\[C@@H](OC(=O)COC(=O)CC(C)C)[C@@]2(C)[C@@H](OC(C)=O)[C@@H](OC(C)=O)[C@@H](OC(=O)CC(C)C)[C@]3(CO3)[C@@H]2[C@H](OC(C)=O)[C@]2(O)[C@@H](C)C(=O)O[C@H]2C1Cl (some centres not stated) | > 50 | – | 84.3 | – |
| CC(=O)O[C@H]1/C=C\C(CO)=C/[C@@H]2OC(=O)[C@H](C)[C@@]2(O)[C@@H](OC(C)=O)[C@H]2[C@@]3(CO3)[C@H](OC(C)=O)C[C@H](OC(C)=O)[C@]12C | < 10 | – | – | – |
| C=C1/C=C\[C@H](OC(C)=O)[C@@]2(C)[C@@H](OC(C)=O)CC[C@]3(CO3)[C@@H]2[C@H](OC(C)=O)[C@]2(O)[C@@H](C)C(=O)O[C@H]2[C@H]1Cl | > 50 | Active | 97.1 | – |
| C=C1/C=C/[C@H](OC(C)=O)[C@@]2(C)[C@@H](OC(C)=O)CC[C@]3(CO3)[C@@H]2[C@H](OC(C)=O)[C@]2(O)[C@@H](C)C(=O)O[C@H]2[C@H]1Cl [JUNCEELLOLIDE C] | > 50 | – | 75 | – |
| C=C1/C=C/[C@H](OC(C)=O)[C@@]2(C)[C@@H](OC(C)=O)C[C@@H](OC(C)=O)[C@]3(CO3)[C@@H]2[C@H](OC(C)=O)[C@]2(O)[C@@H](C)C(=O)O[C@H]2[C@H]1Cl [GEMMACOLIDE H] | > 50 | – | 13.1 | – |
| CC(=O)O[C@H]1/C=C\C(CO)=C/[C@@H]2OC(=O)[C@H](C)[C@@]2(O)[C@@H](OC(C)=O)[C@H]2[C@@](O)(CO)[C@H](O)[C@H](OC(=O)CC(C)C)[C@H](OC(C)=O)[C@]12C | > 50 | inactive | 62.8 | – |

| Structure (SMILES) | CC50 at 48 h [1] [µM] | Activity [2] | inhibition at 10 µM [3] [%] | inhibition ([3]; time 7.0 day) |
| --- | --- | --- | --- | --- |
| CC(=O)O[C@H]1[C@@H](O)[C@](O)(CO)[C@@H]2[C@H](OC(C)=O)[C@@]3(O)[C@H](/C=C(COC(=O)CC(C)C)\C=C/[C@H](OC(C)=O)[C@@]2(C)[C@H]1OC(C)=O)OC(=O)[C@@H]3C | > 50 | inactive | 100 | – |
| C=C1CC[C@H](OC(C)=O)[C@]2(C)[C@@H](OC(C)=O)C[C@@H](OC(C)=O)/C(C(=O)OC)=C\[C@@H]3OC(=O)[C@H](C)[C@@]3(O)[C@@H](OC(C)=O)[C@@H]12 | > 50 | – | 49.4 | – |
| C=C1CC[C@H](OC(C)=O)[C@@]2(C)[C@@H](OC(C)=O)C[C@@H](OC(=O)CC(C)C)[C@]3(CO3)[C@@H]2[C@H](OC(C)=O)[C@]2(O)[C@@H](C)C(=O)O[C@H]2[C@H]1Cl [JUNCENOLIDE J] | > 50 | – | 98.8 | – |
| CCOCC1=C/[C@@H]2OC(=O)[C@H](C)[C@@]2(O)[C@@H](OC(C)=O)[C@H]2[C@@]3(CO3)[C@H](OC(=O)CC(C)C)C[C@H](OC(C)=O)[C@]2(C)[C@@H](OC(C)=O)/C=C\1 | > 50 | – | 51.2 | – |
| CCOCC1=C/[C@@H]2OC(=O)[C@H](C)[C@@]2(O)[C@@H](OC(C)=O)[C@H]2[C@@]3(CO3)[C@H](OC(=O)CC(C)C)C(OC(C)=O)[C@H](OC(C)=O)[C@]2(C)[C@@H](OC(=O)COC(=O)CC(C)C)/C=C\1 (some centres not stated) | > 50 | – | 41.9 | – |
| CC(=O)O[C@H]1/C=C\C(CCl)=C/[C@@H]2OC(=O)[C@H](C)[C@@]2(O)[C@@H](OC(C)=O)[C@H]2[C@@]3(CO3)[C@H](OC(C)=O)C[C@H](OC(=O)CC(C)C)[C@]12C | > 50 | – | 18 | – |
| C=C1[C@H](Cl)[C@@H]2OC(=O)[C@H](C)[C@]23O[C@]1(O)C[C@H](OC(C)=O)[C@@]1(C)[C@@H](OC(C)=O)C[C@@H](OC(=O)CC(C)C)[C@]2(CO2)[C@@H]1[C@@H]3OC(C)=O | > 50 | – | – | inactive |
| CC(=O)O[C@H]1/C=C\C(COC(=O)CC(C)C)=C/[C@@H]2OC(=O)[C@H](C)[C@@]2(O)[C@@H](OC(C)=O)[C@H]2[C@@]3(CO3)[C@H](OC(=O)CC(C)C)C[C@H](OC(C)=O)[C@]12C | > 50 | – | 25 | – |
| CC(=O)O[C@H]1/C=C\C(CO)=C/[C@@H]2OC(=O)[C@H](C)[C@@]2(O)[C@@H](OC(C)=O)[C@H]2[C@@]3(CO3)[C@H](OC(=O)CC(C)C)C[C@H](OC(C)=O)[C@]12C | < 10 | – | – | – |
| CC(=O)O[C@H]1[C@@H](OC(=O)CC(C)C)[C@]2(CO2)[C@@H]2[C@H](OC(C)=O)[C@@]3(O)[C@H](/C=C(CO)\C=C/[C@H](OC(C)=O)[C@@]2(C)[C@H]1OC(C)=O)OC(=O)[C@@H]3C | > 50 | – | 55.8 | – |
| CC(=O)OC1[C@@H](OC(=O)CC(C)C)[C@]2(CO2)[C@@H]2[C@H](OC(C)=O)[C@@]3(O)[C@H](/C=C(CCl)\C=C/[C@H](OC(=O)COC(=O)CC(C)C)[C@@]2(C)[C@H]1OC(C)=O)OC(=O)[C@@H]3C (some centres not stated) | > 50 | – | 86.6 | – |
| C=C1CC[C@H](OC(=O)CC(C)C)[C@]2(C)[C@@H](OC(C)=O)C[C@@H](OC(C)=O)/C(C)=C\[C@@H]3OC(=O)[C@H](C)[C@@]3(O)[C@@H](OC(C)=O)[C@@H]12 | > 50 | – | 68 | – |
| C=C1CC[C@H](OC(C)=O)[C@]2(C)[C@@H](OC(C)=O)CC/C(C)=C\[C@@H]3OC(=O)[C@H](C)[C@@]3(O)[C@@H](OC(C)=O)[C@@H]12 | > 50 | – | 64.5 | – |
| CC(=O)O[C@H]1/C=C\C(CO)=C/[C@@H]2OC(=O)[C@H](C)[C@@]2(O)[C@@H](OC(C)=O)[C@H]2[C@@]3(CO3)[C@H](OC(C)=O)C[C@H](OC(=O)CC(C)C)[C@]12C | > 50 | – | 68 | – |
| C=C1/C=C/[C@H](OC(C)=O)[C@@]2(C)[C@@H](OC(C)=O)C[C@@H](OC(=O)CC(C)C)[C@]3(CO3)[C@@H]2[C@H](OC(C)=O)[C@]2(O)[C@@H](C)C(=O)O[C@H]2[C@H]1Cl [GEMMACOLIDE I] | > 50 | – | 62.2 | – |
| C=C1CC[C@H](OC(C)=O)[C@]2(C)[C@@H](OC(C)=O)C[C@@H](OC(C)=O)/C(C)=C\[C@@H]3OC(=O)[C@H](C)[C@@]3(O)[C@@H](OC(C)=O)[C@@H]12 | > 50 | – | 58.7 | – |

Source: ChEMBL document CHEMBL5331068, “Briarane-type diterpenoids, the inhibitors of osteoclast formation by interrupting Keap1-Nrf2 interaction and activating Nrf2 pathway” (Eur J Med Chem, 2023)
